# Test system: Smad2/Smad3 phosphorylation
# Assay: Phospho-Smad2/3 Inhibition Assay (western blot), Panc-1
# Type: cell-based, human
# Conditions: at 10 μM, Panc-1 pancreatic cancer cell line; starred symbols = activation
# Protocol: Protocol for Phospho-Smad2/3 Inhibition Assay
# This assay is referred to as the “Phospho-Smad2/3 Inhibition Assay” throughout this application.
# Cell lines: Human tumor-derived pancreatic cancer cell line Panc-1 (expressing KRas G12D mutant) and mouse muscle myoblast C2C12 were purchased from American Type Culture Collection and grown in complete DMEM-High Glucose, supplemented with penicillin (100 U/mL), streptomycin (100 μg/mL), and 10% heat-inactivated FBS at 37° C. in a humidified incubator with 5% CO2.
# Method: Cells were plated at 350000 cells/well density in a 12-well plate, allowed 3 hours to adhere to the plate, then starved in the appropriate medium in the presence of 0.5% FBS overnight. The small molecules to be tested were added to the cells in the final concentration of 10 μM in the presence of 0.3% DMSO for 3 hours incubation at 37° C. For IC50 value determination, serial dilutions of compounds were added to cells under the same conditions. Next, Panc-1 cells were stimulated with 10 ng/ml TGF-b1 for 1 hour, and C2C12 cells were stimulated with 10 ng/ml TGF-b1 for 20 minutes (recombinant human TGF-b1, R&D Systems). After stimulation cells were lysed with lysis buffer containing 1% Triton X-100, EDTA, and Halt™ Protease & Phosphatase Inhibitor Cocktail (Thermo Scientific). Protein concentration was assessed by BCA protein assay (Thermo Scientific). Phosphorylation level of Smad2/Smad3 was determined by western blot.
# Western blot protocol: Equal amounts of protein (15-50 μg) were separated by SDS-PAGE and transferred to nitrocellulose membranes (Invitrogen by Thermo Fisher Scientific). The membrane was stained with Ponceau S Stain (Boston BioProducts) to verify uniform protein loading. Membranes were blocked with 10% milk and phosphorylation levels of Smad2/Smad3 were assessed by incubating overnight at 4° C. with the following antibodies: Phospho-Smad2 (Ser465/467) and Phosph-Smad3 (Ser423/425), both from Cell Signaling Technology. Then the membranes were incubated with HRP-conjugated secondary antibody (Jackson Immunoresearch, West Grove, PA). Bands were incubated in Amersham ECL Prime Western Blotting Detection Reagent (GE Healthcare) and visualized using the ChemiDoc MP imaging system (Bio-Rad).
row,Structure (SMILES),% inh of Smad2/3 phosphorylation in Panc-1
1,"Cc1c(-c2ccn(C)n2)cn2nc(-c3nccn3C)nc(Nc3cc4n(n3)CCC4)c12 [Compound 100, N-(5,6-Dihydro-4H-pyrrolo[1,2-b]pyrazol-2-yl)-5-methyl-2-(1-methyl-1H-imidazol-2-yl)-6-(1-methyl-1H-pyrazol-3-yl)pyrrolo[2,1-f][1,2,4]triazin-4-amine]",C* (C* = 46-75% activation)
2,"Cc1c(-c2ccn(C)n2)cn2nc(-c3nccn3C)nc(Nc3ccncn3)c12.Cl [Compound 116, 5-Methyl-2-(1-methyl-1H-imidazol-2-yl)-6-(1-methyl-1H-pyrazol-3-yl)-N-(pyrimidin-4-yl)pyrrolo[2,1-f][1,2,4]triazin-4-amine hydrochloride salt]",D (D = 76-100% inhibition)
3,"Cc1c(-c2ccn(C)n2)cn2nc(-c3nccn3C)nc(Nc3ccccn3)c12 [Compound 118, 5-Methyl-2-(1-methyl-1H-imidazol-2-yl)-6-(1-methyl-1H-pyrazol-3-yl)-N-(pyridin-2-yl)pyrrolo[2,1-f][1,2,4]triazin-4-amine]",A* (A* = 1-25% activation)
4,"Cc1c(-c2ccn(C3CC3)n2)cn2nc(-c3nccn3C)nc(Nc3cc(OCCCN(C)C)ccn3)c12 [Compound 148, 6-(1-Cyclopropyl-1H-pyrazol-3-yl)-N-(4-(3-(dimethylamino)propoxy)pyridin-2-yl)-5-methyl-2-(1-methyl-1H-imidazol-2-yl)pyrrolo[2,1-f][1,2,4]triazin-4-amine]",A (A = 1-25% inhibition)
5,"Cc1c(-c2ccn(C3CC3)n2)cn2nc(-c3nccn3C)nc(Nc3cc(OCCCO)ccn3)c12 [Compound 149, 3-((2-((6-(1-Cyclopropyl-1H-pyrazol-3-yl)-5-methyl-2-(1-methyl-1H-imidazol-2-yl)pyrrolo[2,1-f][1,2,4]triazin-4-yl)amino)pyridin-4-yl)oxy)propan-1-ol]",A (A = 1-25% inhibition)
6,"Cc1c(-c2ccn(C3CC3)n2)cn2nc(-c3nccn3C)nc(Nc3cc(O)ccn3)c12 [Compound 150, 2-((6-(1-Cyclopropyl-1H-pyrazol-3-yl)-5-methyl-2-(1-methyl-1H-imidazol-2-yl)pyrrolo[2,1-f][1,2,4]triazin-4-yl)amino)pyridin-4-ol]",A (A = 1-25% inhibition)
7,"CO[C@H]1C[C@H](Nc2nc(-c3nccn3C)nn3cc(-c4cccnc4)c(C)c23)C1 [Compound 151, N-((1r,3r)-3-Methoxycyclobutyl)-5-methyl-2-(1-methyl-1H-imidazol-2-yl)-6-(pyridin-3-yl)pyrrolo[2,1-f][1,2,4]triazin-4-amine]",A (A = 1-25% inhibition)
8,"COCCO[C@H]1C[C@H](Nc2nc(-c3nccn3C)nn3cc(-c4cccnc4)c(C)c23)C1 [Compound 152, N-((1r,3r)-3-(2-methoxyethoxy)cyclo-butyl)-5-methyl-2-(1-methyl-1H-imidazol-2-yl)-6-(pyridin-3-yl)pyrrolo[2,1-f][1,2,4]triazin-4-amine]",A (A = 1-25% inhibition)
9,"CO[C@H]1C[C@@H](Nc2nc(-c3nccn3C)nn3cc(-c4cccnc4)c(C)c23)C1 [Compound 153, N-((1s,3s)-3-methoxy-cyclobutyl)-5-methyl-2-(1-methyl-1H-imidazol-2-yl)-6-(pyridin-3-yl)pyrrolo[2,1-f][1,2,4]triazin-4-amine]",C (C = 46-75% inhibition)
10,"CO[C@H]1C[C@H](Nc2nc(-c3nccn3C)nn3cc(-c4ccncc4)c(C)c23)C1 [Compound 159, N-((1r,3r)-3-Methoxycyclobutyl)-5-methyl-2-(1-methyl-1H-imidazol-2-yl)-6-(pyridin-4-yl)pyrrolo[2,1-f][1,2,4]triazin-4-amine]",C (C = 46-75% inhibition)
11,"COc1cc(-c2cn3nc(-c4nccn4C)nc(N[C@H]4C[C@H](OC)C4)c3c2C)ccn1 [Compound 160, N-((1r,3r)-3-Methoxycyclobutyl)-6-(2-methoxypyridin-4-yl)-5-methyl-2-(1-methyl-1H-imidazol-2-yl)pyrrolo[2,1-f][1,2,4]triazin-4-amine]",A* (A* = 1-25% activation)
12,"COCCO[C@H]1C[C@H](Nc2nc(-c3nccn3C)nn3cc(-c4ccnc(OC)c4)c(C)c23)C1 [Compound 161, N-((1r,3r)-3-(2-Methoxy-ethoxy)cyclo-butyl)-6-(2-methoxy-pyridin-4-yl)-5-methyl-2-(1-methyl-1H-imidazol-2-yl)pyrrolo[2,1-f][1,2,4]triazin-4-amine]",B (B = 26-45% inhibition)
13,"COc1cc(-c2cn3nc(-c4nccn4C)nc(N[C@H]4C[C@@H](OC)C4)c3c2C)ccn1 [Compound 162, N-((1s,3s)-3-Methoxycyclobutyl)-6-(2-methoxypyridin-4-yl)-5-methyl-2-(1-methyl-1H-imidazol-2-yl)pyrrolo[2,1-f][1,2,4]triazin-4-amine]",A (A = 1-25% inhibition)
14,"COc1ccnc(Nc2nc(-c3nccn3C)nn3cc(-c4cnn(C(C)C)c4)c(C)c23)c1 [Compound 165, 6-(1-Isopropyl-1H-pyrazol-4-yl)-N-(4-methoxypyridin-2-yl)-5-methyl-2-(1-methyl-1H-imidazol-2-yl)pyrrolo[2,1-f][1,2,4]triazin-4-amine]",B* (B* = 26-45% activation)
15,"COc1ccnc(Nc2nc(-c3nccn3C)nn3cc(-c4cccnc4)c(-c4ccccn4)c23)c1 [Compound 166, N-(4-Methoxypyridin-2-yl)-2-(1-methyl-1H-imidazol-2-yl)-5-(pyridin-2-yl)-6-(pyridin-3-yl)pyrrolo[2,1-f][1,2,4]triazin-4-amine]",C* (C* = 46-75% activation)
16,"COc1cc(Nc2nc(-c3nccn3C)nn3cc(-c4cccnc4)c(-c4ccccn4)c23)ncn1 [Compound 167, N-(6-Methoxypyrimidin-4-yl)-2-(1-methyl-1H-imidazol-2-yl)-5-(pyridin-2-yl)-6-(pyridin-3-yl)pyrrolo[2,1-f][1,2,4]triazin-4-amine]",0 (0 = 0% inhibition)
17,"CO[C@H]1C[C@H](Nc2nc(-c3nccn3C)nn3cc(-c4cccnc4)c(-c4ccccn4)c23)C1 [Compound 168, N-((1r,3r)-3-Methoxycyclobutyl)-2-(1-methyl-1H-imidazol-2-yl)-5-(pyridin-2-yl)-6-(pyridin-3-yl)pyrrolo[2,1-f][1,2,4]triazin-4-amine]",A* (A* = 1-25% activation)
18,"COc1ccnc(Nc2nc(-c3nccn3C)nn3cc(-c4cccnc4)c(-c4cccnc4)c23)c1 [Compound 169, N-(4-methoxypyridin-2-yl)-2-(1-methyl-1H-imidazol-2-yl)-5,6-di(pyridin-3-yl)pyrrolo[2,1-f][1,2,4]triazin-4-amine]",C (C = 46-75% inhibition)

# Test system: not listed separately
# Assay: Kinetic Solubility Assay in pH 7.4 Buffer + 2% DMSO
# Type: physicochemical
# Conditions: phosphate-buffered saline pH 7.4 with 2% DMSO, aqueous buffer, kinetic from dmso stock, 25° C., two hours
# Protocol: Biological Example 9: Kinetic Solubility
# Kinetic solubility assay in pH 7.4 Buffer+2% DMSO (“Kinetic Solubility Assay) was performed according to the following protocol: Briefly, using a 20 mM stock solution of the tested compounds in 100% DMSO, dilutions were prepared to a theoretical concentration of 400 μM in duplicates in phosphate-buffered saline pH 7.4 (138 mM NaCl, 2.7 mM KCl, 10 mM K-phosphate) with 2% final DMSO. The tested compounds dilutions in PBS were further allowed to equilibrate at 25° C. on a thermostatic shaker for two hours and then filtered through HTS filter plates using a vacuum manifold. The filtrates of the test compounds were diluted 2-fold with acetonitrile with 2% DMSO before measuring.
# In parallel, using a 20 mM stock solution of the tested compounds in 100% DMSO, dilutions were prepared to theoretical concentrations of 0 μM (blank), 10 μM, 25 μM, 50 μM, 100 μM, and 200 μM in 50% acetonitrile/PBS with 2% final DMSO to generate calibration curves. Ondansetron was used as a reference compound to control proper assay performance. 200 μL of each sample was transferred to a 96-well plate and measured in the 230-550 nm range with a 5 nm step.
# The concentrations of compounds in PBS filtrate are calculated using a dedicated Microsoft Excel calculation script. Proper absorbance wavelengths for calculations are selected for each compound manually based on absorbance maximums (absolute absorbance unit values for the minimum and maximum concentration points within the 0-3 OD range). Each final dataset is visually evaluated by the operator, and goodness of fit (R2) is calculated for each calibration curve. The effective range of this assay is approximately 2-400 μM and the compounds returning values close to the upper limit of the range may have higher actual solubility (e.g., 5′-deoxy-5-fluorouridine).
# Table 8 show kinetic solubility data for selected compounds tested in the Kinetic Solubility assay described above.
row,solubility at 2 h,Structure (SMILES)
1,10 to 30 µM,"Cc1c(-c2ccn(C)n2)cn2nc(-c3nccn3C)nc(Nc3cc4n(n3)CCC4)c12 [Compound 100, N-(5,6-Dihydro-4H-pyrrolo[1,2-b]pyrazol-2-yl)-5-methyl-2-(1-methyl-1H-imidazol-2-yl)-6-(1-methyl-1H-pyrazol-3-yl)pyrrolo[2,1-f][1,2,4]triazin-4-amine]"
2,10 to 30 µM,"Cc1c(-c2ccn(C)n2)cn2nc(-c3nccn3C)nc(Nc3ccncn3)c12.Cl [Compound 116, 5-Methyl-2-(1-methyl-1H-imidazol-2-yl)-6-(1-methyl-1H-pyrazol-3-yl)-N-(pyrimidin-4-yl)pyrrolo[2,1-f][1,2,4]triazin-4-amine hydrochloride salt]"
3,> 30 µM,"Cc1c(-c2ccn(C)n2)cn2nc(-c3nccn3C)nc(Nc3ccccn3)c12 [Compound 118, 5-Methyl-2-(1-methyl-1H-imidazol-2-yl)-6-(1-methyl-1H-pyrazol-3-yl)-N-(pyridin-2-yl)pyrrolo[2,1-f][1,2,4]triazin-4-amine]"

# From patent publication US12459951B2, “Compounds that interact with RAS superfamily proteins for treatment of cancers, inflammatory diseases, rasopathies, and fibrotic disease” (SHY Therapeutics, LLC, priority 2022, dated 2025)
